The source of these data is patent publication US12116388B2, “Amylin receptor agonists” (Novo Nordisk A/S, priority 2022, dated 2024).

Assay [1] concerns the target T1, human amylin receptor (hAMYR3) (Homo sapiens, UniProt O60896+P30988).
T1 construct: host or cells: BHK (Baby Hamster Kidney), Hollex-1 cell line further transfected with RAMP3
The assay is described as follows: Human amylin receptor (hAMYR3) in vitro potency assay, CRE-luciferase reporter in BHK cells. In kind it is cell-based. Particulars: BHK hAMYR3/CRE-Luc cells, 3 hours incubation, assay buffer with 1% ovalbumin. The source says: Activation of hAMYR3 leads to increased cellular concentrations of cAMP. Consequently, transcription is activated by promotors containing multiple copies of the CAMP response element (CRE). It is thus possible to measure hAMYR3 activity using a CRE-luciferase reporter gene introduced into Baby Hamster Kidney (BHK) cells co-expressing the hAMYR3.
A BHK cell line was stably transfected with the human calcitonin receptor (a) and a CRE-responsive luciferase (CRE-Luc) reporter gene according to methods known to the person skilled in the art (Hollex-1 cell line, obtained from Zymogenetics described in U.S. Pat. No. 5,622,839). The cell line was further transfected with human receptor modifying protein 3 (RAMP3) using standard methods. This turns the human calcitonin receptor into a human amylin-3(a) receptor.
(§1) Cells stocks were prepared by culturing of the stably transfected BHK hAMYR3/CRE-Luc cell line in growth medium consisting of DMEM (Gibco, 31966-021) supplemented with 10% FBS (Gibco, 16140-071), 1% Pen/Strep (Gibco, 15140-122), 0.5 mg/mL Geneticin (Gibco, 10131-027), 0.4 mg/mL Hygromycin (Invitrogen, 10687010) and 250 nM Methotrexate (Sigma, A6770). Cells at approximately 80-90% confluence were washed once with PBS (Gibco 14190-094) and loosened from the cell flasks with Versene (Gibco, 15040-033) or TrypLE™ (Gibco, 12605-010). After centrifugation, the cell pellet was dissolved and diluted to approximately 2.5×10E6 cells/mL in Recovery™ Cell Culture Freezing Medium (Gibco, 12648-010). Cells were aliquoted and stored at −180° C. until use.
(§2) The assay buffer consisted of DMEM without phenol red (Gibco, 11880-028) supplemented with 1× GlutaMAX (Gibco, 35050-038), 10 mM HEPES (Gibco, 15630-056) and 1% (w/v) ovalbumin (Sigma, A5503).
(§3) To perform the assay, BHK hAMYR3/CRE-Luc cells were thawed, washed once in PBS and seeded in 40 μL growth medium in a white 384-well culture plate (PerkinElmer, 6007688) at a cell density of 4.000 cells/well on the day before the experiment. The plate was incubated over night at 37° C. in 5% CO2. On the day of the assay, cells were washed once in assay buffer. Serial dilutions (7-fold dilutions, 7 concentrations Pr. compound and one well containing only assay buffer) of comparator compounds and amylin analogues were performed in assay buffer often starting from approximately 10 nM in 96-well plates and 30 μL of each concentration added to the 384-well assay plate with cells. The assay plate was incubated for 3 hours at 37° C. in 5% CO2 after which 30 μL SteadyLite Plus (PerkinElmer, 6066759) was added to each well. The assay plate was sealed, incubated at room temperature with gentle shaking for 5 minutes followed by 30 minutes incubation without shaking while protected from light. Luminescence was detected on a luminescence plate reader e.g. a Synergy 2 (BioTek).
On the technique in general: In a reporter assay the amount or activity of a reporter protein is the signal.

Assay [2] has as its target T2, human calcitonin receptor (hCTR) (Homo sapiens, UniProt P30988).
T2 construct: host or cells: BHK (Baby Hamster Kidney), Hollex-1 cell line
T2 sequence (P30988 25-474): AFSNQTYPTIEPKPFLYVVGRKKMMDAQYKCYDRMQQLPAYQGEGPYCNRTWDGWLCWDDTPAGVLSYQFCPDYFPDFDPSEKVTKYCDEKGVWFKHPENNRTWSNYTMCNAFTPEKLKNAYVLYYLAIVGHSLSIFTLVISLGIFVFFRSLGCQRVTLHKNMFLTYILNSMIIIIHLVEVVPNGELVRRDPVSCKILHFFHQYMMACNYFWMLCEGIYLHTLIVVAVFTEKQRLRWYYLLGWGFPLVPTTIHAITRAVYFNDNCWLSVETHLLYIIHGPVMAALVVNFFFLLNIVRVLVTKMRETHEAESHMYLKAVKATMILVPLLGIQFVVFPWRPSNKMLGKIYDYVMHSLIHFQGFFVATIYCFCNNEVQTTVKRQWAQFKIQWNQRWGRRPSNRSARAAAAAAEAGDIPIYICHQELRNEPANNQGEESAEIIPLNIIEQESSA
The assay is described as follows: Human calcitonin receptor (hCTR) in vitro potency assay, CRE-luciferase reporter in BHK cells. Type of assay: cell-based. As to conditions: BHK hCTR/CRE-Luc cells, 3 hours incubation, assay buffer with 1% ovalbumin; read-out: hCalcR potency, EC50.
Excerpt: Activation of hCTR leads to increased cellular concentrations of CAMP. Consequently, transcription is activated by promotors containing multiple copies of the CAMP response element (CRE). It is thus possible to measure hCTR activity using a CRE-luciferase reporter gene introduced into Baby Hamster Kidney (BHK) cells co-expressing the hCTR.
A BHK cell line was stably transfected with the human calcitonin receptor (a) and a CRE-responsive luciferase (CRE-Luc) reporter gene according to methods known to the person skilled in the art (Hollex-1 cell line, obtained from Zymogenetics described in U.S. Pat. No. 5,622,839).
as §1, with “hCTR/CRE-Luc” for “hAMYR3/CRE-Luc”, “10131-027)” for “10131-027), 0.4 mg/mL Hygromycin (Invitrogen, 10687010)”
as §2
as §3, with “hCTR/CRE-Luc” for “hAMYR3/CRE-Luc”

Starred links: 1 amine or outer side, 2 acyl side, 3 side chain; linkers in the order of their positions; H or OH if unused. Residues, ends and D or L forms follow the SMILES beside them. *: point of attachment. C20 diacid = O=C(O)CCCCCCCCCCCCCCCCCCC(=O)*; C18 diacid = O=C(O)CCCCCCCCCCCCCCCCC(=O)*; γGlu = O=C(O)[C@H](CCC(=O)[*:2])N[*:1]

T1 sequence (O60896 24-148, one chain of several): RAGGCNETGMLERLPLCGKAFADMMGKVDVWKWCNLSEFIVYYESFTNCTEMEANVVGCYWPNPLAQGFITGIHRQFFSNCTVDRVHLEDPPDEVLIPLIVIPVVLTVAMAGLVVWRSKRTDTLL

One may read the EC50 as the concentration giving half of the maximal effect. Turning to `CC[C@H](C)[C@H](NC(=O)[C@@H]1CCCN1C(=O)CNC(=O)[C@H](Cc1ccccc1)NC(=O)[C@H](CC(N)=O)NC(=O)[C@H](CC(=O)O)NC(=O)[C@H](CO)NC(=O)[C@H](CO)NC(=O)[C@H](Cc1c[nH]cn1)NC(=O)[C@H](Cc1c[nH]cn1)NC(=O)[C@H](CC(C)C)NC(=O)[C@H](Cc1ccccc1)NC(=O)[C@H](CCC(=O)O)NC(=O)[C@H](C)NC(=O)[C@H](CC(C)C)NC(=O)[C@H](CCCNC(=N)N)NC(=O)[C@H](C)NC(=O)[C@@H](NC(=O)[C@H](CCC(N)=O)NC(=O)[C@H](C)NC(=O)[C@@H](NC(=O)[C@H](CO)NC(=O)[C@H](CC(C)C)NC(=O)[C@H](C)NC(=O)[C@H](CO)NC(=O)[C@H](C)NC(=O)CC[C@H](NC(=O)CCCCCCCCCCCCCCCCC(=O)O)C(=O)O)[C@@H](C)O)[C@@H](C)O)C(=O)N[C@@H](CC(C)C)C(=O)N1CCC[C@H]1C(=O)N1CCC[C@H]1C(=O)N[C@H](C(=O)N[C@@H](CC(=O)O)C(=O)N[C@H](C(=O)NCC(=O)N[C@@H](CO)C(=O)N[C@@H](CC(N)=O)C(=O)N[C@H](C(=O)N1CCC[C@H]1C(N)=O)[C@@H](C)O)C(C)C)[C@@H](C)O` [Compound 23, N^1-[(4S)-4-carboxy-4-(17-carboxyheptadecanoylamino)butanoyl]-[Ala1,Ser2,Ala3,Leu4,Ser5,Ala7,Gln8,Ala10,Glu14,His17,Asp21,Pro25,Pro28,Pro29,Asp31,Pro37]-human amylin] ({C18 diacid-γGlu}-ASALSTAQTARLAEFLHHSSDNFGPILPPTDVGSNTP-NH2), the figures for the EC50 in assay [1] and in assay [2] were 1.62 pM and 1.58 pM, respectively.
For `CC[C@H](C)[C@H](NC(=O)[C@H](C)NC(=O)CNC(=O)[C@H](Cc1ccccc1)NC(=O)[C@@H]1CCCN1C(=O)[C@H](CC(=O)O)NC(=O)[C@H](CO)NC(=O)[C@H](CO)NC(=O)[C@H](Cc1c[nH]cn1)NC(=O)[C@H](Cc1c[nH]cn1)NC(=O)[C@H](CC(C)C)NC(=O)[C@H](Cc1ccccc1)NC(=O)[C@H](CCC(=O)O)NC(=O)[C@H](C)NC(=O)[C@H](CC(C)C)NC(=O)[C@H](CCCNC(=N)N)NC(=O)[C@H](CCC(N)=O)NC(=O)[C@@H](NC(=O)[C@H](CCC(N)=O)NC(=O)[C@H](C)NC(=O)[C@@H](NC(=O)[C@H](CO)NC(=O)[C@H](CC(C)C)NC(=O)[C@H](Cc1c[nH]cn1)NC(=O)[C@H](CO)NC(=O)[C@H](C)NC(=O)CC[C@H](NC(=O)CCCCCCCCCCCCCCCCCCC(=O)O)C(=O)O)[C@@H](C)O)[C@@H](C)O)C(=O)N1CCC[C@H]1C(=O)N[C@@H](CO)C(=O)N[C@@H](CO)C(=O)N[C@H](C(=O)N[C@@H](CC(=O)O)C(=O)N[C@H](C(=O)NCC(=O)N1CCC[C@H]1C(=O)N[C@@H](CC(=O)O)C(=O)N[C@H](C(=O)N1CCC[C@H]1C(N)=O)[C@@H](C)O)C(C)C)[C@@H](C)O` [Compound 6, N^1-[(4S)-4-carboxy-4-(19-carboxynonadecanoylamino)butanoyl]-[Ala1,Ser2,His3,Leu4,Ser5,Ala7,Gln8,Glu14,His17,Asp21,Pro22,Pro27,Asp31,Pro34,Asp35,Pro37]-human amylin] ({C20 diacid-γGlu}-ASHLSTAQTQRLAEFLHHSSDPFGAIPSSTDVGPDTP-NH2), the EC50 in assay [2] is 1.25 pM.
Take `CC[C@H](C)[C@H](NC(=O)[C@@H]1CCCN1C(=O)CNC(=O)[C@H](Cc1ccccc1)NC(=O)[C@H](CC(N)=O)NC(=O)[C@H](CC(=O)O)NC(=O)[C@H](CO)NC(=O)[C@H](CO)NC(=O)[C@H](Cc1c[nH]cn1)NC(=O)[C@H](Cc1c[nH]cn1)NC(=O)[C@H](CC(C)C)NC(=O)[C@H](Cc1ccccc1)NC(=O)[C@H](CCC(=O)O)NC(=O)[C@H](C)NC(=O)[C@H](CC(C)C)NC(=O)[C@H](CCCNC(=N)N)NC(=O)[C@H](CCC(N)=O)NC(=O)[C@@H](NC(=O)[C@H](CCC(N)=O)NC(=O)[C@H](C)NC(=O)[C@@H](NC(=O)[C@H](CO)NC(=O)[C@H](CC(C)C)NC(=O)[C@H](Cc1c[nH]cn1)NC(=O)[C@H](CO)NC(=O)[C@H](C)NC(=O)CC[C@H](NC(=O)CCCCCCCCCCCCCCCCCCC(=O)O)C(=O)O)[C@@H](C)O)[C@@H](C)O)C(=O)N[C@@H](CC(C)C)C(=O)N1CCC[C@H]1C(=O)N1CCC[C@H]1C(=O)N[C@H](C(=O)N[C@@H](CC(=O)O)C(=O)N[C@H](C(=O)NCC(=O)N[C@@H](CO)C(=O)N[C@@H](CC(N)=O)C(=O)N[C@H](C(=O)N1CCC[C@H]1C(N)=O)[C@@H](C)O)C(C)C)[C@@H](C)O` [Compound 3, N^1-[(4S)-4-carboxy-4-(19-carboxynonadecanoylamino)butanoyl]-[Ala1,Ser2,His3,Leu4,Ser5,Ala7,Gln8,Glu14,His17,Asp21,Pro25,Pro28,Pro29,Asp31,Pro37]-human amylin] ({C20 diacid-γGlu}-ASHLSTAQTQRLAEFLHHSSDNFGPILPPTDVGSNTP-NH2): the EC50 in assay [2] is 1.3 pM.
